# Experimental data published in patent EP2818472A1, “Imidazo[4,5-c]pyridine and pyrrolo[3,2-c]pyridine compounds as G-protein-coupled receptor kinase 5 (GRK5) modulators” (Max-Planck-Gesellschaft zur Förderung der Wissenschaften …, priority 2013, dated 2014).
# Test system: beta-TC6 cells
# Assay: Insulin HTRF assay (relative activity Ar) in beta-TC6 cells
# Format: cell-based, mouse
# Details: Mus musculus, Beta-TC6, 4 h, insulin HTRF, supernatant of beta-TC6 cells, incubation with test compound at 37°C for 2, 3, 4h; read-out: Ar (relative activity)
# Method in brief: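 beta-TC6 cells (15k/well, seeded 24 or 48 h) washed, then exposed to compound in induction buffer (0.5% DMSO final) for 2, 3 or 4 h at 37°C.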
row,SMILES,Emax [%]
1,"CC(=O)Nc1ccc(Nc2cc3c(cn2)nc(-c2cccc(F)c2)n3C)cc1 [Compound 713, N-[4-[[2-(3-fluorophenyl)-1-methyl-imidazo[4,5-c]pyridin-6-yl]amino]phenyl]acetamide]",50 to 100
2,"CS(=O)(=O)Nc1cccc(Nc2nccc3[nH]c(-c4ccc(O)cc4)nc23)c1 [Compound 366, N-[3-[[2-(4-hydroxyphenyl)-1H-imidazo[4,5-c]pyridin-4-yl]amino]phenyl]methanesulfonamide]",30 to 50
3,"COc1cccc(-c2nc3c(Nc4cccc(S(C)(=O)=O)c4)nccc3[nH]2)c1F [Compound 477, 2-(2-fluoro-3-methoxy-phenyl)-N-(3-methylsulfonylphenyl)-1H-imidazo[4,5-c]pyridin-4-amine]",30 to 50
4,"COc1cc(Nc2cc3c(cn2)cc(-c2cccnc2)n3C)cc(OC)c1OC [Compound 82, 1-methyl-2-(3-pyridyl)-N-(3,4,5-trimethoxyphenyl)pyrrolo[3,2-c]pyridin-6-amine]",50 to 100
5,"CNc1nc2cnc(Nc3ccc(OC)cc3)cc2n1CCOC [Compound 496, 1-(2-methoxyethyl)-N6-(4-methoxyphenyl)-N2-methyl-imidazo[4,5-c]pyridine-2,6-diamine]",50 to 100
6,"NC(=O)c1ccc(Nc2nccc3[nH]c(-c4ccccc4)cc23)cc1 [Compound 318, 4-[(2-phenyl-1H-pyrrolo[3,2-c]pyridin-4-yl)amino]benzamide]",> 100
7,"COc1cccc(-c2nc3c(NCC4CC4)nccc3[nH]2)c1 [Compound 376, N-(cyclopropylmethyl)-2-(3-methoxyphenyl)-1H-imidazo[4,5-c]pyridin-4-amine]",30 to 50
8,"CC(=O)c1cccc(Nc2nccc3c2cc(-c2ccsc2)n3C)c1 [Compound 288, 1-[3-[[1-methyl-2-(3-thienyl)pyrrolo[3,2-c]pyridin-4-yl]amino]phenyl]ethanone]",30 to 50
9,"CN(C)c1cccc(Nc2cc3[nH]c(-c4cn[nH]c4)cc3cn2)c1 [Compound 112, N1,N1-dimethyl-N3-[2-(1H-pyrazol-4-yl)-1H-pyrrolo[3,2-c]pyridin-6-yl]benzene-1,3-diamine]",50 to 100
10,"CNc1nc2cnc(Nc3ccc(N4CCOCC4)cc3)cc2n1Cc1ccco1 [Compound 521, 1-(2-furylmethyl)-N2-methyl-N6-(4-morpholinophenyl)imidazo[4,5-c]pyridine-2,6-diamine]",> 100
11,"CNc1nc2cnc(Nc3ccc(N4CCOCC4)cc3)cc2n1CC1CC1 [Compound 571, 1-(cyclopropylmethyl)-N2-methyl-N6-(4-morpholinophenyl)imidazo[4,5-c]pyridine-2,6-diamine]",50 to 100
12,"Cn1c(NCC2CCCO2)nc2cnc(-c3cccs3)cc21 (stereo not drawn) [Compound 852, 1-methyl-N-(tetrahydrofuran-2-ylmethyl)-6-(2-thienyl)imidazo[4,5-c]pyridin-2-amine]",30 to 50
13,"Cc1cccc(Nc2cc3c(cn2)cc(-c2cnn(C)c2)n3C)c1 [Compound 136, 1-methyl-2-(1-methylpyrazol-4-yl)-N-(m-tolyl)pyrrolo[3,2-c]pyridin-6-amine]",50 to 100
14,"CC(=O)Nc1cccc(-c2cc3c(cn2)nc(NCc2cccc(C)c2)n3C)c1 [Compound 580, N-[3-[1-methyl-2-(m-tolylmethylamino)imidazo[4,5-c]pyridin-6-yl]phenyl]acetamide]",30 to 50
15,"COCCNc1nc2cnc(-c3ccc(OC)cc3C)cc2n1C [Compound 859, N-(2-methoxyethyl)-6-(4-methoxy-2-methyl-phenyl)-1-methyl-imidazo[4,5-c]pyridin-2-amine]",30 to 50
16,"COc1cccc(-c2cc3c(cn2)nc(NCCc2cc(OC)ccc2OC)n3C)c1 [Compound 823, N-[2-(2,5-dimethoxyphenyl)ethyl]-6-(3-methoxyphenyl)-1-methyl-imidazo[4,5-c]pyridin-2-amine]",30 to 50
17,"Cn1c(NCc2ccccc2)nc2cnc(Nc3cccc(F)c3)cc21 [Compound 629, N2-benzyl-N6-(3-fluorophenyl)-1-methyl-imidazo[4,5-c]pyridine-2,6-diamine]",30 to 50
18,"COc1ccc(-c2cc3c(cn2)nc(Nc2ccccc2)n3C)cc1 [Compound 847, 6-(4-methoxyphenyl)-1-methyl-N-phenyl-imidazo[4,5-c]pyridin-2-amine]",30 to 50
19,"CNc1nc2cnc(Nc3cccc(C(C)=O)c3)cc2n1CCN1CCOCC1 [Compound 558, 1-[3-[[2-(methylamino)-1-(2-morpholinoethyl)imidazo[4,5-c]pyridin-6-yl]amino]phenyl]ethanone]",50 to 100
20,"CNc1nc2cnc(Nc3ccc(C(C)C)cc3)cc2n1CCOC [Compound 498, N6-(4-isopropylphenyl)-1-(2-methoxyethyl)-N2-methyl-imidazo[4,5-c]pyridine-2,6-diamine]",30 to 50
21,"Cc1cccc(-c2nc3c(NCCc4ccccn4)nccc3[nH]2)c1 [Compound 437, 2-(m-tolyl)-N-[2-(2-pyridyl)ethyl]-1H-imidazo[4,5-c]pyridin-4-amine]",30 to 50

row,SMILES,Emax [%]
1,"COc1ccc(Nc2cc3c(cn2)cc(-c2cccnc2)n3C)c(OC)c1 [Compound 83, N-(2,4-dimethoxyphenyl)-1-methyl-2-(3-pyridyl)pyrrolo[3,2-c]pyridin-6-amine]",50 to 100
2,"CN(C)c1ccc(-c2cc3c(cn2)nc(NCc2ccccc2)n3C)cc1 [Compound 615, N-benzyl-6-(4-dimethylaminophenyl)-1-methyl-imidazo[4,5-c]pyridin-2-amine]",> 100
3,"c1ccc(Nc2cc3[nH]c(-c4cn[nH]c4)cc3cn2)nc1 [Compound 115, 2-(1H-pyrazol-4-yl)-N-(2-pyridyl)-1H-pyrrolo[3,2-c]pyridin-6-amine]",> 100
4,"COCCNc1nc2cnc(Nc3cc(OC)c(OC)c(OC)c3)cc2n1C [Compound 645, N2-(2-methoxyethyl)-1-methyl-N6-(3,4,5-trimethoxyphenyl)imidazo[4,5-c]pyridine-2,6-diamine]",30 to 50
5,"CNc1nc2cnc(Nc3cccc(OC)c3)cc2n1CCN1CCOCC1 [Compound 552, N6-(3-methoxyphenyl)-N2-methyl-1-(2-morpholinoethyl)imidazo[4,5-c]pyridine-2,6-diamine]",30 to 50
6,"CNc1nc2cnc(Nc3cc(OC)c(OC)c(OC)c3)cc2n1Cc1ccc(OC)c(OC)c1 [Compound 660, 1-[(3,4-dimethoxyphenyl)methyl]-N2-methyl-N6-(3,4,5-trimethoxyphenyl)imidazo[4,5-c]pyridine-2,6-diamine]",50 to 100
7,"c1csc(-c2nc3ccncc3[nH]2)c1 [Compound 743, 2-(2-thienyl)-3H-imidazo[4,5-c]pyridine]",30 to 50
8,"Cn1c(NCC2CC2)nc2cnc(Nc3cccc(Oc4ccccc4)c3)cc21 [Compound 750, N2-(cyclopropylmethyl)-1-methyl-N6-(3-phenoxyphenyl)imidazo[4,5-c]pyridine-2,6-diamine]",0 to 30
9,"c1ccc(Nc2nccc3[nH]c(-c4ccc5c(c4)OCCO5)nc23)cc1 [Compound 412, 2-(2,3-dihydro-1,4-benzodioxin-6-yl)-N-phenyl-1H-imidazo[4,5-c]pyridin-4-amine]",30 to 50
10,"COc1ccc(Nc2cc3[nH]c(-c4cccc(N)c4)cc3cn2)cn1 [Compound 1, 2-(3-aminophenyl)-N-(6-methoxy-3-pyridyl)-1H-pyrrolo[3,2-c]pyridin-6-amine]",50 to 100
11,"CNc1nc2cnc(Nc3cccc(N(C)C)c3)cc2n1-c1cccc(F)c1 [Compound 682, N6-[3-(dimethylamino)phenyl]-1-(3-fluorophenyl)-N2-methyl-imidazo[4,5-c]pyridine-2,6-diamine]",50 to 100
12,"Cn1c(-c2cccnc2)cc2cnc(Nc3ccc4c(c3)OCO4)cc21 [Compound 93, N-(1,3-benzodioxol-5-yl)-1-methyl-2-(3-pyridyl)pyrrolo[3,2-c]pyridin-6-amine]",50 to 100
13,"CN(C)c1cccc(Nc2nccc3c2cc(-c2cccnc2)n3C)c1 [Compound 239, N1,N1-dimethyl-N3-[1-methyl-2-(3-pyridyl)pyrrolo[3,2-c]pyridin-4-yl]benzene-1,3-diamine]",30 to 50
14,"COc1ccccc1-c1cc2c(Nc3cccnc3)nccc2n1C [Compound 303, 2-(2-methoxyphenyl)-1-methyl-N-(3-pyridyl)pyrrolo[3,2-c]pyridin-4-amine]",30 to 50
15,"CNc1nc2cnc(-c3ccc(O)c(OC)c3)cc2n1Cc1ccccc1 [Compound 797, 4-[1-benzyl-2-(methylamino)imidazo[4,5-c]pyridin-6-yl]-2-methoxy-phenol]",30 to 50
16,"CNc1nc2cnc(Nc3ccc4c(c3)OCCO4)cc2n1Cc1cccnc1 [Compound 561, N6-(2,3-dihydro-1,4-benzodioxin-6-yl)-N2-methyl-1-(3-pyridylmethyl)imidazo[4,5-c]pyridine-2,6-diamine]",> 100
17,"Cc1cccc(CNc2nc3cnc(-c4ccc(N)nc4)cc3n2C)c1 [Compound 811, 6-(6-amino-3-pyridyl)-1-methyl-N-(m-tolylmethyl)imidazo[4,5-c]pyridin-2-amine]",30 to 50
18,"COc1cccc(-c2nc3c(Nc4ccc(F)c(Cl)c4)nccc3[nH]2)c1F [Compound 474, N-(3-chloro-4-fluoro-phenyl)-2-(2-fluoro-3-methoxy-phenyl)-1H-imidazo[4,5-c]pyridin-4-amine]",30 to 50
19,"COc1ccc(Nc2cc3c(cn2)nc(-c2ccc(OC)c(OC)c2)n3C)cc1 [Compound 721, 2-(3,4-dimethoxyphenyl)-N-(4-methoxyphenyl)-1-methyl-imidazo[4,5-c]pyridin-6-amine]",50 to 100
20,"COc1ccc(Nc2nccc3c2cc(-c2cccnc2)n3C)cc1OC [Compound 238, N-(3,4-dimethoxyphenyl)-1-methyl-2-(3-pyridyl)pyrrolo[3,2-c]pyridin-4-amine]",30 to 50
21,"CCN(CC)CCNC(=O)c1ccc(Nc2nccc3[nH]c(-c4ccc(C)cc4)nc23)cc1 [Compound 381, N-(2-diethylaminoethyl)-4-[[2-(p-tolyl)-1H-imidazo[4,5-c]pyridin-4-yl]amino]benzamide]",50 to 100
